What was measured:
human SAA1 promoter = assay: SAA1 promoter luciferase reporter construct in HepG2 cells; assay type: cell-based; settings: HepG2, pGL2-SAA1pt
Source text: The pGL2-SAA1pt construct was generated as follows. The proximal 3.1 kb of genomic sequence upstream of the human SAA1 transcription start site plus the full 37 bases of 5′UTR was amplified by polymerase chain reaction (PCR) from human genomic DNA (Roche Biomolecular) using forward and reverse primers, HSAA1PF (5′-GAATTCACGCGTTT-[…]-3′) (SEQ ID NO:10) and HSAAPR (5′-[…]-GCTGAGCTGCGGG-3′) (SEQ ID NO:11), that incorporate Mlu1 and Nco1 restriction sites, respectively. The product was digested with Mlu1 and Nco1 and directionally cloned into a pGL2 vector which had been modified to include an Nco1 site at the start of the luciferase coding sequence and contains the human SAA2 3′UTR (Longley et al. (1999) J. Immunol. 163:4537-45).
Constructs pGL2-SAA1[0.7] and pGL2-SAA1[0.25] containing 704 and 233 bases of promoter sequence respectively, were generated from pGL2-SAA1pt by PCR using the forward primers 5′-[…]-CAGCCTTGACC-3′ (SEQ ID NO:12) and 5′-GAATTCACGCGTGGTCT-CCTGCCTG-3′ (SEQ ID NO:13) respectively, and the reverse primer HSAAPR.
Human HepG2 hepatoma cells (ATCC) were cultured in DMEM containing 10% FCS, gentamycin, sodium pyruvate and non-essential amino acids (Gibco BRL). Cells were seeded into 24 well plates 24 hours prior to transfection using FuGENE (Roche Biomolecular) as described in Jensen et al. (2000) J. Immunol. 164:5277-86. Cells transfected with SAA promoter luciferase reporter constructs and renilla control plasmid, were incubated for 16 to 20 hours before replacement of culture medium with fresh medium alone or fresh medium containing 10 ng/ml cytokines and/or dexamethasone and/or RU486 (Mifepristone). IL-1 was purchased from Peprotech. IL-6 was obtained from AstraZeneca. Dexamethasone and RU486 were obtained from Sigma.
(§1) Cells were harvested at various times post-treatment, washed in PBS and resuspended in Passive Lysis Buffer (Promega, Madison, Wis.). […] Each treatment was carried out in triplicate and the mean ratio of luciferase to renilla activity and standard deviations were calculated. […]

human SAA2 promoter = assay: SAA2 promoter luciferase reporter construct in HepG2 cells; assay type: cell-based; settings: HepG2, pGL2-SAA2pt, cytokines 10 ng/ml
Source text: The pGL2-SAA2pt construct, which contains 1.2 kb of the human SAA2 promoter upstream of a luciferase reporter was generated as follows. A 1196 bp of the promoter region and 22 bp of the first exon of the human acute phase SAA2 gene was amplified by PCR with the introduction of MluI and XhoI restriction sites at the 5′ and 3′ ends respectively (5′ oligonucleotide: 5′ […]-TACTTCCT-′3′ (SEQ ID NO: 8); 3′ oligonucleotide: 5′-[…]-[…]-3′ (SEQ ID NO:9). The PCR product was subsequently cloned into the multiple-cloning site of the pGL2-Basic vector (Promega, Madison, Wis., USA) which is located upstream of a luciferase reporter gene.
Constructs pGL2-SAA2[0.7] and pGL2-SAA2[0.25] containing 700 and 239 bases of promoter sequence respectively, were generated from pGL2-SAA2pt by PCR using the forward primers 5′-[…]-3′ (SEQ ID NO:14) and 5′-[…]-3′ (SEQ ID NO:15) respectively, and the reverse primer HSAAPR.
Human HepG2 hepatoma cells (ATCC) were cultured in DMEM containing 10% FCS, gentamycin, sodium pyruvate and non-essential amino acids (Gibco BRL). […]
as §1

Compound: CC#C[C@]1(O)CC[C@H]2[C@@H]3CCC4=CC(=O)CCC4=C3[C@@H](c3ccc(N(C)C)cc3)C[C@@]21C [RU486, Mifepristone]
- effect on cytokine driven SAA1 promoter transcriptional activity (human SAA1 promoter; 10 nM RU486 alone with IL-1 plus IL-6, 4 h): no measurable effect
- block of dexamethasone enhancement of cytokine induction of the SAA1 promoter (human SAA1 promoter; 10 nM RU486 with 100 nM dexamethasone and IL-1 plus IL-6, 4 h): completely blocked

Compound: C[C@@H]1C[C@H]2[C@@H]3CCC4=CC(=O)C=C[C@]4(C)[C@@]3(F)[C@@H](O)C[C@]2(C)[C@@]1(O)C(=O)CO [dexamethasone]
- effect on the SAA1 promoter (human SAA1 promoter; dexamethasone alone (50 nM), 3, 6, 9, 24 h): no effect

Compound: IL-6: cytokine, obtained from AstraZeneca
- kinetic profile of cytokine driven SAA2 promoter readout (human SAA2 promoter; 3, 6, 9, 24 h): highest at 3 hours and decreased through 24 hours
- induction of the SAA2 promoter (human SAA2 promoter; 3-24 h): moderately induced
